Patent US12209092B2, “Inhibitors of GLI1 as therapeutic agents” (NEW YORK UNIVERSITY, priority 2018, dated 2025)
Where two headings read alike, the source gives them in different places.

Tested on: Gli1-mediated transcription
Assay: Gli1-mediated transcriptional luciferase reporter assay
Assay type: cell-based
Procedure: Gli1-mediated transcriptional luciferase reporter assay was performed using Shh-LIGHT2 cells in order to evaluate the effects on activation and inhibition of Gli1-mediated transcription by the compounds of the disclosure. Brief assay procedure is provided below. […] Shh-LIGHT2 cells were harvested from about 80% confluent 10-cm dish using 0.25% Trypsin-EDTA solution. Medium was removed, and cells were washed with 5 mL DPBS and aspirated. Then, 1 mL 0.25% Trypsin-EDTA solution was added to a 10-cm dish. The dish was placed in the incubator for 1-3 minutes, or until cells have detached. 3 mL of cell growth medium (DMEM, 10% FBS, 1% PenStrep, 1% sodium pyruvate, and 1% GlutaMax) was added to the 10-cm dish, and the contents were transferred to a conical tube. […] The cell assay plate was removed from incubator after cells reached confluency. The culture medium was then manually removed from the cell plates, and the plates were centrifuged at 200 rpm for 30 seconds. […] After 30 min incubation of antagonist, cells were stimulated with agonist (purmorphamine, 5 μL, 1.5 μM final), then incubate for 24 h at 37° C./5% CO2. […] Luciferase assay: After incubation, the cell assay plate was allowed to acclimate to room temperature. Then, 20 μL of Duo-Glo® Luciferase Reagent (Promega) was added to each well of cell assay plate. The plate was briefly spun down, mixed, and incubated for 30 minutes at room temperature. The cell plate was read using luminometer for firefly luminescence activity. Then, 20 μL of Duo-Glo® Step&Glo® Reagent (Promega) was added to each well of cell assay plate. The plate was briefly spun down, mixed, and incubated for 30 minutes at room temperature. The cell plate was read using luminometer for Renilla luminescence activity. Ratio of firefly: Renilla luminescence was calculated for each well. The compound well ratio was normalized to the ratio from a control well.

[1] = Shh-LIGHT2 cells, antagonist mode, purmorphamine 1.5 μM stimulation, 24 h, firefly luminescence, read-out: Gli1 IC50 firefly
[2] = Shh-LIGHT2 cells, antagonist mode, purmorphamine 1.5 μM stimulation, 24 h, ratio of firefly:Renilla luminescence, read-out: Gli1 IC50 firefly:Renilla ratio

IC50 [1] [µM]	IC50 [2] [µM]	Structure (SMILES)	IC50 (Shh Light2, 24 h, read-out: Gli1 IC50 firefly) [µM]	IC50 (Shh Light2, 24 h, read-out: Gli1 IC50 firefly:Renilla ratio) [µM]
0.1 to 0.49	0.1 to 0.49	Clc1ccccc1-c1nc2c([nH]1)CN(C1Cc3cccc(Cl)c3C1)CC2 (racemic) [Example 12, 5-(4-chloro-2,3-dihydro-1H-inden-2-yl)-2-(2-chlorophenyl)-4,5,6,7-tetrahydro-3H-imidazo[4,5-c]pyridine]		
1 to 50	1 to 50	O[C@H]1c2cc(Cl)ccc2C[C@@H]1N1CCc2nc(-c3ccccc3Cl)[nH]c2C1 (relative stereo) [Example 99, trans-6-chloro-2-(2-(2-chlorophenyl)-3,4,6,7-tetrahydro-5H-imidazo[4,5-c]pyridin-5-yl)-2,3-dihydro-1H-inden-1-ol]		
0.1 to 0.49	0.1 to 0.49	Clc1ccccc1-c1nc2c([nH]1)CN([C@@H]1CCc3cccc(Cl)c3C1)CC2 [Example 1-R, (R)-5-(8-chloro-1,2,3,4-tetrahydronaphthalen-2-yl)-2-(2-chlorophenyl)-4,5,6,7-tetrahydro-3H-imidazo[4,5-c]pyridine]		
0.1 to 0.49	0.1 to 0.49	Clc1ccccc1-c1nc2c([nH]1)CN([C@H]1CCc3cccc(Cl)c3C1)CC2 [Example 1-S, (S)-5-(8-chloro-1,2,3,4-tetrahydronaphthalen-2-yl)-2-(2-chlorophenyl)-4,5,6,7-tetrahydro-3H-imidazo[4,5-c]pyridine]		
		Clc1ccccc1-c1nc2c([nH]1)CN(C1Cc3ccccc3C1)CC2 [Example 2, 2-(2-chlorophenyl)-5-(2,3-dihydro-1H-inden-2-yl)-4,5,6,7-tetrahydro-3H-imidazo[4,5-c]pyridine]	1 to 50	1 to 50
0.5 to 0.99	0.5 to 0.99	Clc1ccc2c(c1)CC(N1CCc3nc(-c4ccccc4Cl)[nH]c3C1)CO2 (stereo not drawn) [Example 3, 5-(6-chlorochroman-3-yl)-2-(2-chlorophenyl)-4,5,6,7-tetrahydro-3H-imidazo[4,5-c]pyridine]		
0.1 to 0.49	0.1 to 0.49	COc1cccc2c1CCC(N1CCc3nc(-c4ccccc4Cl)[nH]c3C1)C2 (stereo not drawn) [Example 10, 2-(2-chlorophenyl)-5-(5-methoxy-1,2,3,4-tetrahydronaphthalen-2-yl)-4,5,6,7-tetrahydro-3H-imidazo[4,5-c]pyridine]		
0.1 to 0.49	0.1 to 0.49	Clc1ccc2c(c1)CC(N1CCc3nc(-c4ccccc4Cl)[nH]c3C1)CC2 (stereo not drawn) [Example 13, 5-(7-chloro-1,2,3,4-tetrahydronaphthalen-2-yl)-2-(2-chlorophenyl)-4,5,6,7-tetrahydro-3H-imidazo[4,5-c]pyridine]		
1 to 50	1 to 50	OC1c2c(Cl)cccc2CCC1N1CCc2nc(-c3ccccc3Cl)[nH]c2C1 (stereo not drawn) [Example 14, 8-chloro-2-(2-(2-chlorophenyl)-3,4,6,7-tetrahydro-5H-imidazo[4,5-c]pyridin-5-yl)-1,2,3,4-tetrahydronaphthalen-1-ol]		
< 0.1	0.1 to 0.49	COc1cccc2c1CC(N1CCc3nc(-c4ccccc4Cl)[nH]c3C1)CC2 (stereo not drawn) [Example 16, 2-(2-chlorophenyl)-5-(8-methoxy-1,2,3,4-tetrahydronaphthalen-2-yl)-4,5,6,7-tetrahydro-3H-imidazo[4,5-c]pyridine]		
0.5 to 0.99	1 to 50	Clc1cnccc1-c1nc2c([nH]1)CN(C1CCc3cccc(Cl)c3C1)CC2 (stereo not drawn) [Example 17, 5-(8-chloro-1,2,3,4-tetrahydronaphthalen-2-yl)-2-(3-chloropyridin-4-yl)-4,5,6,7-tetrahydro-3H-imidazo[4,5-c]pyridine]		
1 to 50	1 to 50	Cn1c(-c2ccccc2Cl)nc2c1CN(C1CCc3cccc(Cl)c3C1)CC2 (stereo not drawn) [Example 18, 5-(8-chloro-1,2,3,4-tetrahydronaphthalen-2-yl)-2-(2-chlorophenyl)-3-methyl-4,5,6,7-tetrahydro-3H-imidazo[4,5-c]pyridine]		
< 0.1	< 0.1	CN1C2=C(CCN([C@@H]3CCc4cccc(Cl)c4C3)C2)NC1c1ccccc1Cl (stereo partly drawn) [Example 18-R, 5-((R)-8-chloro-1,2,3,4-tetrahydronaphthalen-2-yl)-2-(2-chlorophenyl)-3-methyl-2,3,4,5,6,7-hexahydro-1H-imidazo[4,5-c]pyridine]		
0.1 to 0.49	0.1 to 0.49	CN1C2=C(CCN([C@H]3CCc4cccc(Cl)c4C3)C2)NC1c1ccccc1Cl (stereo partly drawn) [Example 18-S, 5-((S)-8-chloro-1,2,3,4-tetrahydronaphthalen-2-yl)-2-(2-chlorophenyl)-3-methyl-2,3,4,5,6,7-hexahydro-1H-imidazo[4,5-c]pyridine]		
0.1 to 0.49	0.1 to 0.49	Clc1ccc2c(c1)CC(N1CCc3nc(-c4ccccc4Cl)[nH]c3C1)C2 (stereo not drawn) [Example 19, 5-(5-chloro-2,3-dihydro-1H-inden-2-yl)-2-(2-chlorophenyl)-4,5,6,7-tetrahydro-3H-imidazo[4,5-c]pyridine]		
1 to 50	1 to 50	O[C@@H]1Cc2ccccc2C[C@H]1N1CCc2nc(-c3ccccc3Cl)[nH]c2C1 [Example 20, (2R,3R)-3-(2-(2-chlorophenyl)-3,4,6,7-tetrahydro-5H-imidazo[4,5-c]pyridin-5-yl)-1,2,3,4-tetrahydronaphthalen-2-ol]		
0.5 to 0.99	0.5 to 0.99	Clc1ccc2c(c1)CC(N1CCc3nc(-c4cccc(Cl)c4Cl)[nH]c3C1)CC2 (stereo not drawn) [Example 21, 5-(7-chloro-1,2,3,4-tetrahydronaphthalen-2-yl)-2-(2,3-dichlorophenyl)-4,5,6,7-tetrahydro-3H-imidazo[4,5-c]pyridine]		
0.5 to 0.99	0.1 to 0.49	Fc1ccc(-c2nc3c([nH]2)CN(C2CCc4ccc(Cl)cc4C2)CC3)c(Cl)c1 (stereo not drawn) [Example 22, 5-(7-chloro-1,2,3,4-tetrahydronaphthalen-2-yl)-2-(2-chloro-4-fluorophenyl)-4,5,6,7-tetrahydro-3H-imidazo[4,5-c]pyridine]		

Structure (SMILES)	IC50 [1] [µM]	IC50 [2] [µM]	IC50 (Shh Light2, 24 h, read-out: Gli1 IC50 firefly) [µM]	IC50 (Shh Light2, 24 h, read-out: Gli1 IC50 firefly:Renilla ratio) [µM]
Clc1ccccc1-c1nc2c([nH]1)CN(C1CCc3cccc(Cl)c3C1)CC2 (stereo not drawn) [Example 1, 5-(8-chloro-1,2,3,4-tetrahydronaphthalen-2-yl)-2-(2-chlorophenyl)-4,5,6,7-tetrahydro-3H-imidazo[4,5-c]pyridine]	< 0.1	0.1 to 0.49		
COc1cccc(-c2nc3c([nH]2)CN(C2CCc4ccc(OC)cc4C2)CC3)c1 (stereo not drawn) [Example 4, 5-(7-methoxy-1,2,3,4-tetrahydronaphthalen-2-yl)-2-(3-methoxyphenyl)-4,5,6,7-tetrahydro-3H-imidazo [4,5-c]pyridine]	0.5 to 0.99	1 to 50		
Fc1ccc2c(c1)CC(N1CCc3nc(-c4ccccc4F)[nH]c3C1)CC2 (stereo not drawn) [Example 5, 5-(7-fluoro-1,2,3,4-tetrahydronaphthalen-2-yl)-2-(2-fluorophenyl)-4,5,6,7-tetrahydro-3H-imidazo[4,5-c]pyridine]	1 to 50	1 to 50		
Fc1ccccc1-c1nc2c([nH]1)CN(C1CCc3ccc(Cl)cc3C1)CC2 (stereo not drawn) [Example 6, 5-(7-chloro-1,2,3,4-tetrahydronaphthalen-2-yl)-2-(2-fluorophenyl)-4,5,6,7-tetrahydro-3H-imidazo[4,5-c]pyridine]	1 to 50	1 to 50		
COc1ccc2c(c1)CCC(N1CCc3nc(-c4ccccc4F)[nH]c3C1)C2 (stereo not drawn) [Example 7, 2-(2-fluorophenyl)-5-(6-methoxy-1,2,3,4-tetrahydronaphthalen-2-yl)-4,5,6,7-tetrahydro-3H-imidazo[4,5-c]pyridine]	1 to 50	1 to 50		
COc1ccc2c(c1)CC(N1CCc3nc(-c4ccccc4F)[nH]c3C1)CC2 (stereo not drawn) [Example 8, 2-(2-fluorophenyl)-5-(7-methoxy-1,2,3,4-tetrahydronaphthalen-2-yl)-4,5,6,7-tetrahydro-3H-imidazo[4,5-c]pyridine]	1 to 50	1 to 50		
COc1cccc2c1CC(N1CCc3nc(-c4ccccc4F)[nH]c3C1)CC2 (stereo not drawn) [Example 9, 2-(2-fluorophenyl)-5-(8-methoxy-1,2,3,4-tetrahydronaphthalen-2-yl)-4,5,6,7-tetrahydro-3H-imidazo[4,5-c]pyridine]	0.5 to 0.99	1 to 50		
Fc1ccccc1-c1nc2c([nH]1)CN(C1CCc3cccc(F)c3C1)CC2 (stereo not drawn) [Example 11, 5-(8-fluoro-1,2,3,4-tetrahydronaphthalen-2-yl)-2-(2-fluorophenyl)-4,5,6,7-tetrahydro-3H-imidazo[4,5-c]pyridine]	1 to 50	1 to 50		
COc1ccc2c(c1)CC(N1CCc3nc(-c4ccccc4Cl)[nH]c3C1)CC2 (stereo not drawn) [Example 15, 2-(2-chlorophenyl)-5-(7-methoxy-1,2,3,4-tetrahydronaphthalen-2-yl)-4,5,6,7-tetrahydro-3H-imidazo[4,5-c]pyridine]	0.1 to 0.49	0.1 to 0.49		
